Source: ChEMBL document CHEMBL1201862, “PubChem BioAssay data set” (2004)
Several values for one entry are separate records, joined by “and”; a condition that tells them apart may be missing. Equal values may be shown once.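 96-well plates; 48 h exposure; 5 concentrations. Endpoints by linear interpolation between flanking doses. Not reached: highest tested concentration assigned. The concentration for 50% growth inhibition is given as GI50.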 Activity calls are given as the source filed them. Cut-off read from the data, not from the text of the source: active = GI50 up to about 1.1 µM and inactive = higher.

Columns and labels:
Assay in all cases: NCI-60 cell line screen, 48 h
[1] = tested on: XF498
[2] = tested on: NCI-H460
[3] = tested on: NCI-H522
[4] = tested on: HT-29
[5] = tested on: SK-MEL-5
[6] = tested on: DU-145
[7] = tested on: LOX IMVI
[8] = tested on: NCI-H23
[9] = tested on: M14
[10] = tested on: SNB-19
[11] = tested on: OVCAR-8
[12] = tested on: MDA-MB-435
[13] = tested on: LXFL 529
[14] = tested on: Hs-578T
[15] = tested on: HCT-15
[16] = tested on: MCF7
[17] = tested on: DMS-273
[18] = tested on: MDA-N
[19] = tested on: MDA-MB-231
[20] = tested on: HCT-116
[21] = tested on: KM-20L2
[22] = tested on: SR
[23] = tested on: SF-539
[24] = tested on: IGROV-1
[25] = tested on: RPMI-8226
[26] = tested on: HL-60
[27] = tested on: MOLT-4
[28] = tested on: ACHN
[29] = tested on: U-251
[30] = tested on: DLD-1
[31] = tested on: A549
[32] = tested on: BT-549
[33] = tested on: CAKI-1
[34] = tested on: 786-0
[35] = tested on: HCC 2998
[36] = tested on: PC-3
[37] = tested on: SK-MEL-2
[38] = tested on: CCRF-CEM
[39] = tested on: UACC-257
[40] = tested on: SNB-78
[41] = tested on: RXF 393
[42] = tested on: TK-10
[43] = tested on: SNB-75
[44] = tested on: EKVX
[45] = tested on: SK-MEL-28
[46] = tested on: SN12C
[47] = tested on: HOP-62
[48] = tested on: UACC-62
[49] = tested on: K562
[50] = tested on: M19-MEL
[51] = tested on: A498
[52] = tested on: DMS-114
[53] = tested on: NCI-H226
[54] = tested on: Malme-3M
[55] = tested on: OVCAR-3
[56] = tested on: SF-268
[57] = tested on: KM12
[58] = tested on: SF-295
[59] = tested on: UO-31
[60] = tested on: SK-OV-3
[61] = tested on: COLO 205
[62] = tested on: SW-620

Measured: GI50

Nc1nc(N)c2nc(CNc3ccc(C(=O)NC(CCCNC(=O)c4ccccc4C(=O)O)C(=O)O)cc3)cnc2n1 (stereo unspecified)
active: [2] < 0.01 µM | [3] < 0.01 µM | [4] < 0.01 µM | [5] 10 nM and < 18.4 nM | [6] 0.01 µM | [7] < 0.01 µM | [8] < 0.01 µM | [9] 0.01 µM | [10] < 20.2 nM and 21.6 nM | [11] < 0.01 µM | [12] 0.00311 µM | [13] 0.000762 µM | [16] 0.01 µM | [17] 0.01 µM | [18] 0.01 µM | [20] < 0.215 µM | [21] 0.00875 µM | [22] 0.01 µM | [23] < 0.01 µM | [24] < 0.01 µM | [25] < 0.01 µM | [26] < 0.01 µM | [27] < 19.4 nM and < 10 nM | [28] 0.01 µM | [29] < 10 nM and 14.3 nM | [30] < 0.01 µM | [31] < 0.01 µM | [33] 0.01 µM | [34] 0.01 µM | [35] < 0.01 µM | [36] 0.01 µM
0.01 µM: [15]
inactive: [1] > 100 µM | [14] > 100 µM | [19] > 100 µM | [32] 6.18 µM

CN1CC2(CCCCC2)C(O)C12C=CCCC2 (stereo unspecified)
inactive: [37] > 100 µM | [38] > 100 µM | [39] > 100 µM | [1] > 100 µM | [3] > 100 µM | [4] > 100 µM | [5] > 100 µM | [40] > 100 µM | [41] > 100 µM | [7] > 100 µM | [8] > 100 µM | [9] > 100 µM | [42] > 100 µM | [43] 69.5 µM | [44] > 100 µM | [10] > 100 µM | [11] > 100 µM | [45] > 100 µM | [13] > 100 µM | [46] > 100 µM | [47] > 100 µM | [48] > 100 µM | [49] > 100 µM | [17] > 100 µM | [50] > 100 µM | [51] > 100 µM | [21] > 100 µM | [52] > 100 µM | [23] > 100 µM | [24] > 100 µM | [25] > 100 µM | [26] > 100 µM | [27] > 100 µM | [29] > 100 µM | [53] > 100 µM | [54] > 100 µM | [55] > 100 µM | [30] > 100 µM | [56] > 100 µM | [31] > 100 µM | [57] > 100 µM | [58] > 100 µM | [59] > 100 µM | [60] > 100 µM | [33] > 100 µM | [34] > 100 µM | [35] > 100 µM | [61] > 100 µM | [62] > 100 µM
> 100 µM: [15]
